PubChem BioAssay AID2384 (Southern Research Specialized Biocontainment Screening …, 2010)
pIC50: −log10 of the molar value. Where “and” joins values, the source holds several entries; their conditions need not be identical. Identical values can stand only once.

tested on: S. typhi GFP reporter counter-screen, fluorescence, 4 h; test: S. typhi counter-screen signal inhibition – fluorescence, 4 h, counter-screen for PhoP regulon inhibitor project, dose response (AID 2384)

Row | SMILES | pIC50
1 | CC(C)[C@@H]1CC[C@@H](C)C[C@H]1OC(=O)C[n+]1cc(-c2ccc(Cl)cc2)n2c1CCCCC2 | 4.13
2 | Cc1ccccc1S(=O)(=O)NNC(=O)C(=O)NNc1ccccn1 | 4.44
3 | O=C(CCN1CCN(c2ccccc2F)CC1)c1ccc(Br)cc1 | 4.43
4 | CCCCCCCCCCn1c2c(c(=N)c3c1CCC3)CCC2 | 5.01
5 | O=C(CSc1ccccn1)Nc1nonc1[N+](=O)[O-] | 3.94
6 | CC1=NOC(=O)/C1=C/c1ccc(O)cc1 | 3.84
7 | CCCCN(CCCC)C(=O)c1cn(CC)c2cc(N3CCN(C)CC3)c(F)cc2c1=O | 4.80
8 | Cc1c2ccncc2c(C)c2c1[nH]c1ccccc12 | 4.67
9 | O=C(C[n+]1cccc(CNC(=O)c2ccc(OC(F)F)cc2)c1)Nc1ccc(SC(F)F)cc1 | 4.10
10 | COc1ccc(C(=O)CCN2CCc3cc(OC)c(OC)cc3C2)cc1 | 3.92
11 | O=C1C(=O)c2ccccc2-c2ccccc21 | 4.71
12 | COc1ccc(C(C[N+](=O)[O-])C2(c3ccc(OC)c(OC)c3)C(=O)c3ccccc3C2=O)cc1 (stereo unspecified) | 4.74
13 | O=C(N/N=C/c1ccc([N+](=O)[O-])o1)C1CCCC1 | 4.43
14 | CO[C@H]1C=CO[C@@]2(C)Oc3c(C)c(O)c4c(O)c(c(C=NN5CCN(C)CC5)c(O)c4c3C2=O)NC(=O)C(C)=CC=C[C@H](C)[C@H](O)[C@@H](C)[C@@H](O)[C@@H](C)[C@H](OC(C)=O)[C@@H]1C | 4.45
15 | CCCCCOc1ccc(CSC2=NCCN2)cc1[N+](=O)[O-] | 4.49
16 | O=C1CN(/N=C/c2ccc([N+](=O)[O-])o2)C(=O)N1 | 4.38
17 | CCOC(=O)c1c(N)sc(C(=O)Nc2ccc3c(c2)OCO3)c1C | 3.88
18 | CN1CCN(c2c(F)cc3c(=O)c(C(=O)O)cn4c3c2SCC4)CC1 | 5.20 and 5.05
19 | C=CC1=C(C(=O)O)N2C(=O)[C@@H](NC(=O)/C(=N\O)c3csc(N)n3)[C@H]2SC1 (stereo in doubt) | 4.81
20 | Cc1cc(C2CCCCC2)n(O)c(=O)c1 | 4.86
21 | O=C(N/N=C/c1cc(Cl)ccc1O)c1ccncc1 | 4.76
22 | O=C(N/N=C/c1sc2ccccc2c1O)c1cccc2ccccc12 | 4.59
23 | Oc1ccc(/C=N/Nc2nccnc2Cl)c(O)c1 | 4.52
24 | Cc1c(N=Cc2cc(Br)cc(Br)c2O)cccc1C(=O)O | 4.40
25 | c1ccc(Nc2ccnc(Nc3ccccc3)n2)cc1 | 4.41
26 | CS(=O)(=O)c1ccc([C@@H](O)[C@@H](CO)NC(=O)C(Cl)Cl)cc1 | 4.74

Row | SMILES | pIC50
27 | Cc1ccc(C(C[N+](=O)[O-])c2c(N)n(C)c(=O)n(C)c2=O)cc1 (stereo unspecified) | 4.21
28 | O=C(N/N=C/c1cc(Br)ccc1O)c1ccncc1 | 4.69
29 | COc1nsnc1NS(=O)(=O)c1ccc(NC(=S)NC(=O)c2cccnc2)cc1 | 4.16
30 | O=C(NCCCN1CCOCC1)c1sc2cc(Cl)ccc2c1Cl | 4.09
31 | Cc1nc2c(=O)n(C)c(=O)nc-2n(C)n1 | 5.63
32 | Cc1cc(C)c2c(N)c3ccccc3nc2n1 | 4.07
33 | NC1=NC[C@H](Cc2ccc(O)cc2)N1CCc1cccc2ccccc12 | 4.44
34 | O=C(O)c1ccc(N2C(=O)CC(N3C(=O)/C(=C/c4ccc(Cl)cc4)SC3=S)C2=O)cc1 (stereo unspecified) | 4.63
35 | Nc1cc2c3c(cccc3c1)C(=O)N(CCN1CCCC1)C2=O | 3.89
36 | O=C(O)c1cc2c(cn1)[nH]c1ccccc12 | 4.03
37 | c1ccc(CN2CCC(Nc3nc(-c4ccccc4)nc4ccccc34)CC2)cc1 | 4.42
38 | CN1C(=O)N2CN(C3CCCCC3)CN3C(=O)N(C)C1C23 (stereo unspecified) | 3.96
39 | C#CCOCCOCCOCCNc1nc(N2CCN(C(=O)CCCCCCCCCCNC(=O)[C@H]([C@@H](C)CC)n3cc(CCCCN=C(N)N)nn3)CC2)nc(N2CCN(C(=O)CCCCCCCCCCNC(=O)[C@H](CCCCN)n3cc(C)nn3)CC2)n1 | 4.32
40 | O=C1CSC(=S)N1c1cccc(O)c1 | 4.22
41 | CNC[C@H](CC1CCCCC1)NC[C@H](Cc1ccccc1)NCCC12CC3CC(CC(C3)C1)C2 | 4.98
42 | NC1=NC[C@H](Cc2ccccc2)N1CCCCC1CCCCC1 | 4.71
43 | COc1cc(CNCCc2c[nH]c3ccccc23)ccc1OCc1ccccc1F | 4.15
44 | CN(C)c1ccc(Nc2nc(N)c3ccccc3n2)cc1 | 4.11
45 | CC(c1cccnc1)N(CCN(C)C)C(=O)Nc1ccc(Cl)c(Cl)c1 (stereo unspecified) | 4.01
46 | C#CCOCCOCCOCCNc1nc(N2CCN(C(=O)CCCCCCCCCCNC(=O)[C@H](CCCCN)n3cc(C)nn3)CC2)nc(N2CCN(C(=O)CCCCCCCCCCNC(=O)[C@@H]([C@H](C)CC)n3cc(CCCCCN)nn3)CC2)n1 | 4.69
47 | COc1cccc2c(=O)c(C(=O)O)c[nH]c12 | 3.95
48 | O=C1C=C(Nc2ccccc2O)c2ccccc2C1=O | 4.00
49 | CCCN1CCC(NCc2cn(C)nc2-c2ccc(Oc3ccccc3)cc2)CC1 | 4.07
50 | COc1ccc(C(=O)NNC(=S)NC(=O)c2ccccc2)cc1 | 4.03
51 | O=C(CNCCC1=CCCCC1)Nc1ccc(N2CCCCCC2)cc1 | 4.61
52 | CN(C)CC/C=C1/c2ccccc2Sc2ccc(Cl)cc21 | 4.52

Row | SMILES | pIC50
53 | O=C(N/N=C/c1cc(Cl)cc([N+](=O)[O-])c1O)C1CC1 | 4.01
54 | OC(CNCCc1ccc(Cl)cc1)COc1cc(Cl)ccc1Cl (stereo unspecified) | 4.09
55 | NCC/C=C1/c2ccccc2CSc2ccccc21 | 3.84
56 | Oc1c(Br)cc(Br)cc1C=NCc1ccc(F)cc1 | 4.34
57 | Clc1ccc(OCCCN2CCCC2)cc1Cl | 4.55
58 | COC(=O)C1C(O)C(C)C(O)C(C)(O)/C=C\C=C(/C)C(=O)Nc2c(C)c(OC(C)=O)c3c(c2O)C(=O)C(C)=C2OCOC(=C23)/C(C)=C/C(C)(O)C(O)C(C)C1O (stereo unspecified) | 4.62
59 | CC1(C)CC(N2CCN(C(c3ccccc3)c3ccccc3)CC2)=CC(=[N+]2CCCCC2)C1 | 4.20
60 | COc1cc([N+](=O)[O-])cc(/C=N/NC(=O)C(C)Nc2cccc(C)c2)c1O (stereo unspecified) | 3.87
61 | CCCOc1ccc(C(=O)NNC(=S)NC(C)=O)cc1 | 4.41
62 | COc1cccc(-c2nnc(NC(=O)c3ccc(Cl)s3)o2)c1 | 4.34
63 | Cc1[nH]c2ccc(C(=O)Nc3ccncc3)cc2c1C | 4.04
64 | CCCCCCCCCCC[N+](C)(C)CC/C=C1/c2ccccc2Sc2ccc(Cl)cc21 | 4.27
65 | CC(=O)NC(c1cccs1)c1cc([N+](=O)[O-])c2cccnc2c1O (stereo unspecified) | 4.59
66 | COC(=O)C1C(O)C(C)C(O)C(C)/C=C\C=C(/C)C(=O)Nc2c(C)c(OC(C)=O)c3c(c2O)C(=O)C(C)=C2OCOC(=C23)/C(C)=C/C(C)(O)C(O)C(C)C1O (stereo unspecified) | 4.82
67 | O=C(Nc1nnc(C(F)(F)F)s1)c1ccc(Br)s1 | 3.86
68 | Cc1ccc(C(=O)N/C(=C\c2ccc(-c3ccc(Cl)cc3)o2)C(=O)NCCCN(C)C)cc1 | 4.44
69 | Cc1cc(N/N=C/c2ccc(O)cc2)c2cccc(C)c2n1 | 4.32
70 | COc1cc(CNC2CCCC2)cc(Cl)c1OCc1ccccc1Cl | 4.42
71 | C=CCNc1ncnc2c1[nH]c1ccc(C)cc12 | 3.95
72 | CCCCn1c(NS(=O)(=O)c2ccccc2)c(S(=O)(=O)c2ccc(C)cc2)c2nc3ccccc3nc21 | 5.03
73 | O=[N+]([O-])c1cccc(NNS(=O)(=O)c2ccccc2F)c1 | 4.73
74 | NC(=O)SCC(=O)Nc1cccc(Cl)c1 | 4.22
75 | CCC(C)N1CCC2(CC1)N=c1c(c3c4c5c(C)c(O)c3c(O)c1=NC(=O)C(C)=CC=C[C@H](C)[C@H](O)[C@@H](C)[C@@H](O)[C@@H](C)[C@H](OC(C)=O)[C@H](C)[C@@H](OC)C=CO[C@@](C)(O5)C4=O)N2 (stereo partly specified) | 5.27
76 | CN1CCN(/N=C/c2c3ccccc3c(Cl)c3ccccc23)CC1 | 4.13
